{"source": "patent US5821219A", "about": "(priority 1995, dated 1998)", "key": {"mice [1]": {"system": "mice", "parameters": "dose or concentration left out as unconfirmed"}, "mice [2]": {"system": "mice", "assay": "Acetic acid abdominal constriction (writhing) test", "type": "in vivo, mouse", "conditions": "NAL 1 mg/kg and 10 mg/kg sc", "description": "The AC assay was a modification of the technique originally described by Koster et al. Mice (N=9-15 per group) were acclimated to individual cylindrical Plexiglass observation chambers for >30 minutes. […] A separate group of Sal-treated mice received no icv injection (None). Between 5 and 10 minutes later, all mice were given an intraperitoneal (ip) injection of 0.9% acetic acid and placed back in their observation chambers. For the next 30 minutes, the number of abdominal constrictions (lengthwise stretches of the torso with a concomitant concave arching of the back) were counted and recorded. Four mice in separate chambers were observed simultaneously by a single experimenter blind to drug condition."}, "[3]": {"target": "T1, novel mammalian opioid receptor (LC132, MSOR, OFQR) (Rattus norvegicus, UniProt P35370)", "T1 construct": "The entire coding region of the receptor cDNA insert was subcloned into the RcRSV vector; expressed in transfected cells", "T1 sequence (P35370 whole entry)": "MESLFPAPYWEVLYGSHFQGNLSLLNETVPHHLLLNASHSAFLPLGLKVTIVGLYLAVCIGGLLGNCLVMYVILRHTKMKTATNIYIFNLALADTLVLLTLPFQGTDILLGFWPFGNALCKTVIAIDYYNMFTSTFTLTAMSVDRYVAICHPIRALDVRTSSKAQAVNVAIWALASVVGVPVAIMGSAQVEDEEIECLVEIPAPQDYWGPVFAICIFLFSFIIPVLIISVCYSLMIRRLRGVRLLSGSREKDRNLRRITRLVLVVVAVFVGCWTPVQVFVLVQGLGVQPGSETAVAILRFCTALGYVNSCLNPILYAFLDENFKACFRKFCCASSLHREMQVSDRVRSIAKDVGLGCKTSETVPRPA", "assay": "biochemical", "type": "binding"}, "mice [4]": {"system": "mice", "assay": "Morphine hypothermia and Straub tail in DBA/2J mice"}, "mice [5]": {"system": "mice", "assay": "Reversal of morphine analgesia, 49° C. tail withdrawal latency", "type": "in vivo, mouse", "conditions": "morphine sulfate 5 mg/kg sc"}}, "data": [{"molecule": "C=CCN1CC[C@]23c4c5ccc(O)c4O[C@H]2C(=O)CC[C@@]3(O)[C@H]1C5", "note": "[naloxone]", "values": [{"measurement": "hyperalgesia in TW test", "setting": "mice [1]", "value": "In no case did any mouse treated with OFQ or naloxone exhibit hyperalgesia"}, {"measurement": "stress-induced analgesia: post-injection increase in TW latency", "setting": "mice [1]; 46° C. water, p<0.05", "value": "attenuated the 4 s post-injection increase in TW latency"}, {"measurement": "decreased number of abdominal constrictions due to SIA", "setting": "mice [2]", "value": "reversed"}]}, {"molecule": "CC1(C)SSC(C)(C)[C@@H](NC(=O)[C@@H](N)Cc2ccc(O)cc2)C(=O)NCC(=O)N[C@@H](Cc2ccccc2)C(=O)N[C@H]1C(=O)O", "note": "[DPDPE, c[D-penicillamine^2, D-penicillamine^5]enkephalin]", "values": [{"measurement": "specific binding of the radioactively-labeled ligand", "setting": "[3]", "value": "no specific binding"}]}, {"molecule": "CN1CC[C@]23c4c5ccc(O)c4O[C@H]2[C@@H](O)CC[C@H]3[C@H]1C5", "note": "[dihydromorphine]", "values": [{"measurement": "specific binding of the radioactively-labeled ligand", "setting": "[3]", "value": "no specific binding"}]}, {"molecule": "CN1CC[C@]23c4c5ccc(O)c4O[C@H]2[C@@H](O)C=C[C@H]3[C@H]1C5", "note": "[morphine]", "values": [{"measurement": "decrease in body temperature", "setting": "mice [4]; MOR 20 mg/kg i.p., DBA/2J mice", "value": 6, "unit": "°C"}, {"measurement": "Straub tail", "setting": "mice [4]; morphine 20 mg/kg", "value": "produced Straub tail"}, {"measurement": "duration of analgesia", "setting": "mice [5]", "value": "about 2 hours"}, {"measurement": "time of peak analgesia", "setting": "mice [5]; post-injection", "value": 30, "unit": "min"}]}, {"molecule": "CCC(=O)C(CC(C)N(C)C)(c1ccccc1)c1ccccc1", "note": "(stereo not shown) [methadone]", "values": [{"measurement": "Bmax", "setting": "[3]", "value": "400-450 fentomoles/μg protein"}, {"measurement": "Kd", "setting": "[3]", "value": "~0.1", "unit": "nM"}, {"measurement": "specific binding of the radioactively-labeled ligand", "setting": "[3]", "value": "specific binding was found"}]}, {"molecule": "β-endorphin", "values": [{"measurement": "specific binding of the radioactively-labeled ligand", "setting": "[3]", "value": "no specific binding"}]}, {"molecule": "C[C@@H](NC(=O)[C@@H](N)Cc1ccc(O)cc1)C(=O)NCC(=O)N(C)[C@@H](Cc1ccccc1)C(=O)NCCO", "note": "[DAMGO, Tyr-DAla-Gly-Met-Phe-Gly-ol]", "values": [{"measurement": "specific binding of the radioactively-labeled ligand", "setting": "[3]", "value": "no specific binding"}]}, {"molecule": "CCC12CCN(CC3(O)CC3)C(Cc3ccc(O)cc31)C2(C)C", "note": "(stereo not shown) [bremacozine]", "values": [{"measurement": "specific binding of the radioactively-labeled ligand", "setting": "[3]", "value": "no specific binding"}]}, {"molecule": "CC[C@]12CCN(CC3CC3)[C@H](C(=O)c3ccc(O)cc31)[C@@H]2C", "note": "[ethylketocyclazocine]", "values": [{"measurement": "specific binding of the radioactively-labeled ligand", "setting": "[3]", "value": "no specific binding"}]}]}
